What was measured:
[1] = molecular target: Non-receptor tyrosine-protein kinase TYK2 (Homo sapiens) (UniProt P29597); settings: Compound concentration 1000.0 nM
[2] = molecular target: Serine/threonine-protein kinase LATS1 (Homo sapiens) (UniProt O95835); settings: Compound concentration 1000.0 nM
[3] = test system: Phosphatidylinositol 4,5-bisphosphate 3-kinase catalytic subunit alpha isoform (Homo sapiens), P42336 [E545K]; settings: Compound concentration 1000.0 nM
[4] = molecular target: Serine/threonine-protein kinase DCLK1 (Homo sapiens) (UniProt O15075); settings: Compound concentration 1000.0 nM
[5] = molecular target: Inhibitor of nuclear factor kappa-B kinase subunit epsilon (Homo sapiens) (UniProt Q14164); settings: Compound concentration 1000.0 nM
[6] = molecular target: Dual specificity mitogen-activated protein kinase kinase 7 (Homo sapiens) (UniProt O14733); settings: Compound concentration 1000.0 nM
[7] = molecular target: Uncharacterized serine/threonine-protein kinase SBK3 (Homo sapiens) (UniProt P0C264); settings: Compound concentration 1000.0 nM
[8] = molecular target: Dual specificity mitogen-activated protein kinase kinase 4 (Homo sapiens) (UniProt P45985); settings: Compound concentration 1000.0 nM
[9] = test system: Receptor-type tyrosine-protein kinase FLT3 (Homo sapiens), P36888 [UNDEFINED MUTATION]; settings: Compound concentration 1000.0 nM
[10] = molecular target: Calcium/calmodulin-dependent protein kinase type II subunit delta (Homo sapiens) (UniProt Q13557); settings: Compound concentration 1000.0 nM
[11] = molecular target: Cyclin-dependent kinase 19 (Homo sapiens) (UniProt Q9BWU1); settings: Compound concentration 1000.0 nM
[12] = test system: Tyrosine-protein kinase ABL1 (Homo sapiens), P00519 [T315I]; settings: Compound concentration 1000.0 nM
[13] = molecular target: cAMP-dependent protein kinase catalytic subunit PRKX (Homo sapiens) (UniProt P51817); settings: Compound concentration 1000.0 nM
[14] = molecular target: Serine/threonine-protein kinase 32C (Homo sapiens) (UniProt Q86UX6); settings: Compound concentration 1000.0 nM
[15] = test system: Receptor-type tyrosine-protein kinase FLT3 (Homo sapiens), P36888 [UNDEFINED MUTATION]; settings: Compound concentration 1000.0 nM; remark: listed apart in the source
[16] = molecular target: Ephrin type-B receptor 2 (Homo sapiens) (UniProt P29323); settings: Compound concentration 1000.0 nM
[17] = molecular target: Serine/threonine-protein kinase RIO1 (Homo sapiens) (UniProt Q9BRS2); settings: Compound concentration 1000.0 nM
[18] = molecular target: MAP/microtubule affinity-regulating kinase 4 (Homo sapiens) (UniProt Q96L34); settings: Compound concentration 1000.0 nM
[19] = molecular target: Tyrosine-protein kinase ABL2 (Homo sapiens) (UniProt P42684); settings: Compound concentration 1000.0 nM
[20] = molecular target: Wee1-like protein kinase (Homo sapiens) (UniProt P30291); settings: Compound concentration 1000.0 nM
[21] = molecular target: Cyclin-dependent kinase 11B (Homo sapiens) (UniProt P21127); settings: Compound concentration 1000.0 nM
[22] = test system: Receptor-type tyrosine-protein kinase FLT3 (Homo sapiens), P36888 [D835H]; settings: Compound concentration 1000.0 nM
[23] = molecular target: Serine/threonine-protein kinase tousled-like 1 (Homo sapiens) (UniProt Q9UKI8); settings: Compound concentration 1000.0 nM
[24] = molecular target: Receptor tyrosine-protein kinase erbB-3 (Homo sapiens) (UniProt P21860); settings: Compound concentration 1000.0 nM
[25] = molecular target: Serine/threonine-protein kinase BRSK1 (Homo sapiens) (UniProt Q8TDC3); settings: Compound concentration 1000.0 nM
[26] = test system: Receptor-type tyrosine-protein kinase FLT3 (Homo sapiens), P36888 [N841I]; settings: Compound concentration 1000.0 nM
[27] = molecular target: G protein-coupled receptor kinase 3 (Homo sapiens) (UniProt P35626); settings: Compound concentration 1000.0 nM
[28] = molecular target: Sigma intracellular receptor 2 (Homo sapiens) (UniProt Q5BJF2); settings: Compound concentration 10.0 uM
[29] = molecular target: Proto-oncogene tyrosine-protein kinase receptor Ret (Homo sapiens) (UniProt P07949); settings: Compound concentration 1000.0 nM
[30] = molecular target: Insulin receptor-related protein (Homo sapiens) (UniProt P14616); settings: Compound concentration 1000.0 nM
[31] = molecular target: Tyrosine-protein kinase ITK/TSK (Homo sapiens) (UniProt Q08881); settings: Compound concentration 1000.0 nM
[32] = molecular target: Focal adhesion kinase 1 (Homo sapiens) (UniProt Q05397); settings: Compound concentration 1000.0 nM
[33] = molecular target: Tyrosine-protein kinase Fgr (Homo sapiens) (UniProt P09769); settings: Compound concentration 1000.0 nM
[34] = molecular target: Protein kinase C epsilon type (Homo sapiens) (UniProt Q02156); settings: Compound concentration 1000.0 nM
[35] = molecular target: Dual specificity protein kinase CLK3 (Homo sapiens) (UniProt P49761); settings: Compound concentration 1000.0 nM
[36] = molecular target: Protein kinase C eta type (Homo sapiens) (UniProt P24723); settings: Compound concentration 1000.0 nM
[37] = test system: Receptor-type tyrosine-protein kinase FLT3 (Homo sapiens), P36888 [R834Q]; settings: Compound concentration 1000.0 nM
[38] = molecular target: Serine/threonine-protein kinase/endoribonuclease IRE1 (Homo sapiens) (UniProt O75460); settings: Compound concentration 1000.0 nM
[39] = molecular target: Serine/threonine-protein kinase 16 (Homo sapiens) (UniProt O75716); settings: Compound concentration 1000.0 nM
[40] = molecular target: Serine/threonine-protein kinase 38 (Homo sapiens) (UniProt Q15208); settings: Compound concentration 1000.0 nM
[41] = molecular target: Myosin-IIIb (Homo sapiens) (UniProt Q8WXR4); settings: Compound concentration 1000.0 nM
[42] = molecular target: Serine/threonine-protein kinase PknB (Mycobacterium tuberculosis) (UniProt P9WI81); settings: Compound concentration 1000.0 nM
[43] = molecular target: Tyrosine-protein kinase receptor UFO (Homo sapiens) (UniProt P30530); settings: Compound concentration 1000.0 nM
[44] = molecular target: Mu-type opioid receptor (Homo sapiens) (UniProt P35372); settings: Compound concentration 10.0 uM

Sequence of Proto-oncogene tyrosine-protein kinase receptor Ret (Homo sapiens) (P07949 whole entry): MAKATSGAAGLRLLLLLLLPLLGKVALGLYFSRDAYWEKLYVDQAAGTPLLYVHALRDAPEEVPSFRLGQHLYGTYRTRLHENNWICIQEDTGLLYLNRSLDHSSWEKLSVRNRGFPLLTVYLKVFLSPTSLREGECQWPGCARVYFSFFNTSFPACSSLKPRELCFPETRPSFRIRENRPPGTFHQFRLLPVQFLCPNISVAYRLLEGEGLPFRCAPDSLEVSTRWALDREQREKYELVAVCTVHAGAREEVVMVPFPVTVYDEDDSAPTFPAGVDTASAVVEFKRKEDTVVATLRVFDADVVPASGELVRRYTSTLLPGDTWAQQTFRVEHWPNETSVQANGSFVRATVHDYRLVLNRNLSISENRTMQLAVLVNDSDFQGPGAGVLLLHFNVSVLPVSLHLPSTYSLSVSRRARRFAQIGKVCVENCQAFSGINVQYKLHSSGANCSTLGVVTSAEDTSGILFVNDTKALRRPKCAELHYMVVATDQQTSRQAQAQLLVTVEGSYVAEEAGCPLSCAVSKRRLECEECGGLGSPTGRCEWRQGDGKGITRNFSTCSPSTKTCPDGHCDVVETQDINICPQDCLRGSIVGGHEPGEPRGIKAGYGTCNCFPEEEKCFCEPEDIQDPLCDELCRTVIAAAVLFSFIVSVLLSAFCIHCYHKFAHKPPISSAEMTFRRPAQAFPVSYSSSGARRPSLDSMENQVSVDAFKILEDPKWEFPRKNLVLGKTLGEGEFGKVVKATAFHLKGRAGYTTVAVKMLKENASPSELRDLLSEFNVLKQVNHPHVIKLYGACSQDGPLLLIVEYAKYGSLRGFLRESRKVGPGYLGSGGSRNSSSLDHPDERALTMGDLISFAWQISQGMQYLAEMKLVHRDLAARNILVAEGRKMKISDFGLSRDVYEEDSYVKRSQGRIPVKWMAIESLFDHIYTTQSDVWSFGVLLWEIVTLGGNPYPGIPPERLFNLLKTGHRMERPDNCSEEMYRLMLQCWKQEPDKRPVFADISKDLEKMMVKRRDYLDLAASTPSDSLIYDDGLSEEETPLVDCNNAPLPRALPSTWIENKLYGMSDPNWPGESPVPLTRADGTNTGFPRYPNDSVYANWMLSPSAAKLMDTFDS
Sequence of Inhibitor of nuclear factor kappa-B kinase subunit epsilon (Homo sapiens) (Q14164 whole entry): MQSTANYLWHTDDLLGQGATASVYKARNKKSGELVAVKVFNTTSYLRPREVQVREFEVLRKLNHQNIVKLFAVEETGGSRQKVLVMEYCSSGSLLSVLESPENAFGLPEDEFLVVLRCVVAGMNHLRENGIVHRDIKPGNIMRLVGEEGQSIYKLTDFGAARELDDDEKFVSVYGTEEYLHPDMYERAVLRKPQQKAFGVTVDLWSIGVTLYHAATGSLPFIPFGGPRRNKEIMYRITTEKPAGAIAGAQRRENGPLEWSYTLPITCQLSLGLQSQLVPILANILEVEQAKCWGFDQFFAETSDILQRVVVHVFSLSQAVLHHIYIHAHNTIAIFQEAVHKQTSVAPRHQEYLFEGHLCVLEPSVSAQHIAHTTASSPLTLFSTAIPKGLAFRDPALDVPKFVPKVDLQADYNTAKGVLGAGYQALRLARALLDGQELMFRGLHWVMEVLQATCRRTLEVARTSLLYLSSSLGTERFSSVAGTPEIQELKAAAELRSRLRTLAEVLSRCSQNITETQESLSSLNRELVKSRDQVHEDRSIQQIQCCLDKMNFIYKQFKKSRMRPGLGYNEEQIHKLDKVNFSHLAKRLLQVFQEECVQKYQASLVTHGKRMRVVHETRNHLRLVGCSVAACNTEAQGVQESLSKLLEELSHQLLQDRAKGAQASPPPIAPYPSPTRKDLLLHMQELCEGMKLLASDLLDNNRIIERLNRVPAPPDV
Sequence of Protein kinase C eta type (Homo sapiens) (P24723 whole entry): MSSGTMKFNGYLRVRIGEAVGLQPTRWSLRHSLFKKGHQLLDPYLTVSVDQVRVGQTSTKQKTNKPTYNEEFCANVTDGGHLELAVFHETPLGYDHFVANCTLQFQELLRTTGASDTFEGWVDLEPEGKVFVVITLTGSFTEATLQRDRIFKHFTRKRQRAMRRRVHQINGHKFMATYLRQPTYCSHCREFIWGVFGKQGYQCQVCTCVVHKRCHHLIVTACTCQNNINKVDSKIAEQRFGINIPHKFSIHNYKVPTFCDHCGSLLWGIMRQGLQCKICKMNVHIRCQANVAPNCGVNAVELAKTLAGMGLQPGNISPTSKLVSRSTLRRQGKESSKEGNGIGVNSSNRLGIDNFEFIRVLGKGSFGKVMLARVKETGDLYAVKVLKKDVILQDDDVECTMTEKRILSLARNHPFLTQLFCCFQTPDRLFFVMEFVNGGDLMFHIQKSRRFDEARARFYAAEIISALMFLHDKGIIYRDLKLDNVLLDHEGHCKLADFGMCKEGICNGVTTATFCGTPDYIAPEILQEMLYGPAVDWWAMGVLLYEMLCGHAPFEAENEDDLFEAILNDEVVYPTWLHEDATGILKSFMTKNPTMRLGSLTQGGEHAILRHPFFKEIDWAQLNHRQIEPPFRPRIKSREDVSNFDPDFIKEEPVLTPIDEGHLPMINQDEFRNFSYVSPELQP
Sequence of Protein kinase C epsilon type (Homo sapiens) (Q02156 whole entry): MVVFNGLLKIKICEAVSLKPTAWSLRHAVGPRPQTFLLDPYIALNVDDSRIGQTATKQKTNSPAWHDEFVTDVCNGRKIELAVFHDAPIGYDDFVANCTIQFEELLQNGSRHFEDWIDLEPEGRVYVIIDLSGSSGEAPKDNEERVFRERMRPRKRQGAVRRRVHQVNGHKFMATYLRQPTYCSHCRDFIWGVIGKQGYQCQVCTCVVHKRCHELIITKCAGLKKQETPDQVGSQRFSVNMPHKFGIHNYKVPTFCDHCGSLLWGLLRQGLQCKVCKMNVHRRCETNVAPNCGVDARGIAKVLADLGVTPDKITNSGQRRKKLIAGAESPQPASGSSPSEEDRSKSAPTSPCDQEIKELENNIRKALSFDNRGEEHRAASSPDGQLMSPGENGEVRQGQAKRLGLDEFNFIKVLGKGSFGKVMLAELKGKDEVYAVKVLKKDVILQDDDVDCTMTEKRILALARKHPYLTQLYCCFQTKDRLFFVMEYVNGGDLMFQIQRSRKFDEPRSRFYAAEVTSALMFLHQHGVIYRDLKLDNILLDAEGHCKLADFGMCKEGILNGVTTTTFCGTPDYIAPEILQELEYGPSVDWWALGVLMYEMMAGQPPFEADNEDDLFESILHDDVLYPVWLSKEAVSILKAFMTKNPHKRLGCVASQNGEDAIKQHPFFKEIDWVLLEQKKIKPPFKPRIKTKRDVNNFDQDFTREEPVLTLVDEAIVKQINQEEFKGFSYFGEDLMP
Sequence of Cyclin-dependent kinase 11B (Homo sapiens) (P21127 whole entry): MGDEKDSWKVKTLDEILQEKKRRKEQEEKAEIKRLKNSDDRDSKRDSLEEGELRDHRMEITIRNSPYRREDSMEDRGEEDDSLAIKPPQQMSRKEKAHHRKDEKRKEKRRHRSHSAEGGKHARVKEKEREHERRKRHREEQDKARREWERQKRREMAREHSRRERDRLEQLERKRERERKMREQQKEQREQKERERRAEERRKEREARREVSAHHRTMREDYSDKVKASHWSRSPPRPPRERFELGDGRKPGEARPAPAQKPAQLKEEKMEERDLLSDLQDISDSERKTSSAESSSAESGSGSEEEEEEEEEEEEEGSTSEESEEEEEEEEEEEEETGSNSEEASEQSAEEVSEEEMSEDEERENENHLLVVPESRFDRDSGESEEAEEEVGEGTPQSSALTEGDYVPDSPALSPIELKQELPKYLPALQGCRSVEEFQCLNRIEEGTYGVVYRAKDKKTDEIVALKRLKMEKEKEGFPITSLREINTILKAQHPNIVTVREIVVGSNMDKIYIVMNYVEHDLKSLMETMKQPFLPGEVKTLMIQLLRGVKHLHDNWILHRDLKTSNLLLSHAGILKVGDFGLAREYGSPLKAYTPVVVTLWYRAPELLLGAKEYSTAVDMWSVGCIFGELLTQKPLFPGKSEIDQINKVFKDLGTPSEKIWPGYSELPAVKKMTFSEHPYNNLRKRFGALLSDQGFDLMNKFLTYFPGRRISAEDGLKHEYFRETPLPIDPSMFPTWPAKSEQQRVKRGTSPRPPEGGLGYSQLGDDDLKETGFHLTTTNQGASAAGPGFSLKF
Sequence of Tyrosine-protein kinase Fgr (Homo sapiens) (P09769 2-529 limits assumed): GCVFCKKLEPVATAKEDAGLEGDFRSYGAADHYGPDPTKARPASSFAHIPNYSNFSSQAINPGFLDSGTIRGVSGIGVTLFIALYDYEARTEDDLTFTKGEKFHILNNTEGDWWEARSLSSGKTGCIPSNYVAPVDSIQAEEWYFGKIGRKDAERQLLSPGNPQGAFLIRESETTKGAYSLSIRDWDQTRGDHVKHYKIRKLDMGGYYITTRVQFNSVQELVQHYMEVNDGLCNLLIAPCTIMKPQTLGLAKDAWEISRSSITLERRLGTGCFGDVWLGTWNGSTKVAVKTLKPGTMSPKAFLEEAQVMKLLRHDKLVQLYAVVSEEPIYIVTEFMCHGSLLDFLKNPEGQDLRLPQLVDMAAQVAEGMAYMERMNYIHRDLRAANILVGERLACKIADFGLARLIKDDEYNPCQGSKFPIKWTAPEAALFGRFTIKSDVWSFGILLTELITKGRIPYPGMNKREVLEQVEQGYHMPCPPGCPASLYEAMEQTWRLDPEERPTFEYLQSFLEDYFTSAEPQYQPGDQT
Sequence of Uncharacterized serine/threonine-protein kinase SBK3 (Homo sapiens) (P0C264 whole entry): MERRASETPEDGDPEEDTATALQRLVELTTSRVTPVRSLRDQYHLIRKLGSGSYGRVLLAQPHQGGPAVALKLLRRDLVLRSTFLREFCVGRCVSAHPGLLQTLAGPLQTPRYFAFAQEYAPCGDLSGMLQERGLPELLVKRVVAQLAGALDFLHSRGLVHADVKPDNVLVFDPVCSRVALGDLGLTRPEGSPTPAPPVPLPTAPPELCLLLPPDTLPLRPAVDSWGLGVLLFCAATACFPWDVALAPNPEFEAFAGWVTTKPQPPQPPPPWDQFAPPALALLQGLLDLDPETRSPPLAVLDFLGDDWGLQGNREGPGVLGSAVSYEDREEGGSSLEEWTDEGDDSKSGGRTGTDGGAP

N#CC1(c2ccccn2)CCN(Cc2cc(C(=O)N3CCCC3)c(=O)n3ccccc23)CC1
inactive: residual activity [1] 91% | residual activity [2] 100% | residual activity [3] 76% | residual activity [4] 91% | residual activity [5] 94% | residual activity [6] 100% | residual activity [7] 100% | residual activity [8] 83% | residual activity [9] 90% | residual activity [10] 97% | residual activity [11] 75% | residual activity [12] 83% | residual activity [13] 96% | residual activity [14] 100% | residual activity [15] 90% | residual activity [16] 77% | residual activity [17] 95% | residual activity [18] 90% | residual activity [19] 100% | residual activity [20] 74% | residual activity [21] 80% | residual activity [22] 87% | residual activity [23] 85% | residual activity [24] 93% | residual activity [25] 87% | residual activity [26] 100% | residual activity [27] 77% | inhibition [28] 24.1% | residual activity [29] 74% | residual activity [30] 93% | residual activity [31] 95% | residual activity [32] 89% | residual activity [33] 100% | residual activity [34] 79% | residual activity [35] 99% | residual activity [36] 100% | residual activity [37] 100% | residual activity [38] 100% | residual activity [39] 100% | residual activity [40] 64% | residual activity [41] 100% | residual activity [42] 92% | residual activity [43] 78% | inhibition [44] 35%

N#CC1(c2ccccn2)CCN(Cc2cc(C(=O)O)c(=O)n3ccccc23)CC1 [MSD-M1PAM]
inactive: residual activity [1] 99% | residual activity [2] 100% | residual activity [3] 100% | residual activity [4] 100% | residual activity [5] 88% | residual activity [6] 95% | residual activity [7] 72% | residual activity [8] 85% | residual activity [9] 94% | residual activity [10] 100% | residual activity [11] 82% | residual activity [12] 80% | residual activity [13] 100% | residual activity [14] 72% | residual activity [15] 100% | residual activity [16] 100% | residual activity [17] 88% | residual activity [18] 98% | residual activity [19] 100% | residual activity [20] 99% | residual activity [21] 100% | residual activity [22] 100% | residual activity [23] 97% | residual activity [24] 100% | residual activity [25] 100% | residual activity [26] 97% | residual activity [27] 95% | inhibition [28] 5.17% | residual activity [29] 95% | residual activity [30] 97% | residual activity [31] 100% | residual activity [32] 100% | residual activity [33] 94% | residual activity [34] 100% | residual activity [35] 100% | residual activity [36] 100% | residual activity [37] 100% | residual activity [38] 81% | residual activity [39] 100% | residual activity [40] 93% | residual activity [41] 100% | residual activity [42] 88% | residual activity [43] 91% | inhibition [44] 18.5%
